US10266497B2 (ABIDE THERAPEUTICS, INC., priority 2017, dated 2019)

How the values were obtained:
MAGL [1] = molecular target: T1, MAGL (Homo sapiens, UniProt Q99685); experiment: In vitro competitive activity-based protein profiling, MAGL, human; conditions: for inhibition at 1 µM: read-out: MAGL % inh. 1 μM (human)
T1 sequence (Q99685 1-303): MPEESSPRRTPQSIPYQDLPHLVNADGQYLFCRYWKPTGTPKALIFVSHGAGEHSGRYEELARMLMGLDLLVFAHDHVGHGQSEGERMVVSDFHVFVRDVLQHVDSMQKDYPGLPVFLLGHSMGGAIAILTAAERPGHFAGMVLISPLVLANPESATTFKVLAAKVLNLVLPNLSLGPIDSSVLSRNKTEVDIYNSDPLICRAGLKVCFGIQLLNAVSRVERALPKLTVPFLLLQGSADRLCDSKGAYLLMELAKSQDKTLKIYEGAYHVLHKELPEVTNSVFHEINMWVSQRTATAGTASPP

MAGL [2] = molecular target: T2, MAGL (Mus musculus, UniProt O35678); experiment: In vitro competitive activity-based protein profiling, MAGL, mouse; conditions: read-out: MAGL % inh. 1 μM (mouse)
T2 sequence (O35678 1-303): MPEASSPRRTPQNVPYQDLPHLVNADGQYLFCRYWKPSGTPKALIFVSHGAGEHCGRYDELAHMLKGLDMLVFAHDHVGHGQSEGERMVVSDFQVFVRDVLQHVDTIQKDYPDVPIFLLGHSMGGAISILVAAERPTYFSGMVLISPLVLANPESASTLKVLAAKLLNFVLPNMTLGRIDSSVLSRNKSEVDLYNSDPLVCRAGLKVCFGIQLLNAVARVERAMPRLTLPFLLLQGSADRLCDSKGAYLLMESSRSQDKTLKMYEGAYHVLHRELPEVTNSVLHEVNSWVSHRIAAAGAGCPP

FAAH [3] = molecular target: T3, FAAH (Homo sapiens, UniProt O00519); experiment: In vitro competitive activity-based protein profiling, FAAH, human; conditions: for inhibition at 1 µM: read-out: FAAH % inh. 1 μM (human)
T3 sequence (O00519 1-579): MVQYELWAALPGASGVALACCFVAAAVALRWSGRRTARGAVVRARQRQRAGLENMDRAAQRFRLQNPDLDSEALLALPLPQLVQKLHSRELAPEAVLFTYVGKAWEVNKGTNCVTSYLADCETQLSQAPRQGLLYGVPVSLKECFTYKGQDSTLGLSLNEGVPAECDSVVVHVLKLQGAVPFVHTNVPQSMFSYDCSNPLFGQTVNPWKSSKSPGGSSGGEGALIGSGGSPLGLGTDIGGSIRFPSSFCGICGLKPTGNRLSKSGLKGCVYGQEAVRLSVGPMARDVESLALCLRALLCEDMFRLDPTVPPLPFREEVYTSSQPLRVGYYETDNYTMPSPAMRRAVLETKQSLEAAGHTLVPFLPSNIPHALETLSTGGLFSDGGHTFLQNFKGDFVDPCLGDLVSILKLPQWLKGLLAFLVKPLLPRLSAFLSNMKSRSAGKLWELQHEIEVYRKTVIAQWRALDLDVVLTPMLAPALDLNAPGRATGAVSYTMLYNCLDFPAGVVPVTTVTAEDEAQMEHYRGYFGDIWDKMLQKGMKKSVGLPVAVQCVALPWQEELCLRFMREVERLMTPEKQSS

FAAH [4] = molecular target: T4, FAAH (Mus musculus, UniProt O08914); experiment: In vitro competitive activity-based protein profiling, FAAH, mouse; conditions: read-out: FAAH % inh. 1 μM (mouse)
T4 sequence (O08914 1-579): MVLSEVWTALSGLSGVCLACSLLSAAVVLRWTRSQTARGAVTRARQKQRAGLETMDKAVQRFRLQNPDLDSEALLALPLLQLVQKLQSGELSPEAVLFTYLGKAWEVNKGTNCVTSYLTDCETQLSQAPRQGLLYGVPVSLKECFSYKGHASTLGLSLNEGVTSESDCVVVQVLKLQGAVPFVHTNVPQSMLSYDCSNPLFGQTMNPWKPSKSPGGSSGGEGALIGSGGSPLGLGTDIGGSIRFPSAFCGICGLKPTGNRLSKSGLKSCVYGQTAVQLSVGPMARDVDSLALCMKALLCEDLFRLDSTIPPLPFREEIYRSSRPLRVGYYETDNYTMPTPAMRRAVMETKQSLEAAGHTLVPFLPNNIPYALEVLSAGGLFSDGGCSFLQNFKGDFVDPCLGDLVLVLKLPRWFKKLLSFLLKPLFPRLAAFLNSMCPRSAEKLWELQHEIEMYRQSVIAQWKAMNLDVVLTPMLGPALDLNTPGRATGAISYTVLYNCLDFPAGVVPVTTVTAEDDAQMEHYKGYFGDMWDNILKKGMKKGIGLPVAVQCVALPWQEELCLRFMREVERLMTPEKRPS
Experimental: Biological Evaluation In Vitro Competitive Activity-Based Protein Profiling.
Proteomes (mouse brain membrane fraction for mouse assays; human prefrontal cortex membrane fractions for human assays) (50 mL, 1.0 mg/mL total protein concentration) were preincubated with varying concentrations of inhibitors at 37° C. After 30 min, FP-Rh (1.0 mL, 50 mM in DMSO) was added and the mixture was incubated for another 30 min at 37° C. Reactions were quenched with SDS loading buffer (15 μL—4λ) and run on SDS-PAGE.

MAGL [5] = molecular target: T2, MAGL; experiment: Mouse brain proteomes from inhibitor treated mice (oral gavage, sacrificed 4 h after administration); format: in vivo; design: mouse brain membrane fraction for mouse assays; from tissue; host or cells: mouse brain (membrane fraction in vitro; brain proteomes of treated C57Bl/6J mice in vivo); conditions: 5 mg/kg oral gavage, brain proteome 4 h after administration, read-out: MAGL % inh. 5 mg/kg (mouse)
FAAH [6] = molecular target: T4, FAAH; experiment: Mouse brain proteomes from inhibitor treated mice (oral gavage, sacrificed 4 h after administration), FAAH; format: in vivo; design: mouse brain membrane fraction for mouse assays; from tissue; host or cells: mouse brain (membrane fraction in vitro; brain proteomes of treated C57Bl/6J mice in vivo); conditions: 5 mg/kg oral gavage, brain proteome 4 h after administration, read-out: FAAH % inh. 5 mg/kg (mouse)

| Compound | inhibition at 1 µM (MAGL [1]) [%] | inhibition at 1 µM (MAGL [2]) [%] | inhibition at 1 µM (FAAH [3]) [%] | inhibition at 1 µM (FAAH [4]) [%] | inhibition at 5 mg/kg (MAGL [5]) [%] | inhibition at 5 mg/kg (FAAH [6]) [%] | IC50 (MAGL [1]) [nM] | IC50 (FAAH [3]) [nM] |
| --- | --- | --- | --- | --- | --- | --- | --- | --- |
| CN(Cc1ccc(C(F)(F)F)cc1N1C2CCC1COC2)C1(C)CCN(C(=O)n2ccc(C(=O)O)n2)CC1 [Example 207, 1-(4-((2-(3-oxa-8-azabicyclo[3.2.1]octan-8-yl)-4-(trifluoromethyl)benzyl)(methyl)amino)-4-methyl-piperidine-1-carbonyl)-1H-pyrazole-3-carboxylic acid] | > 75 | > 75 | 0 to 25 | 0 to 25 | 0 to 25 | 0 to 25 |  |  |
| O=C(O)c1ccn(C(=O)N2CCN(Cc3ccc(C(F)(F)F)c(N4CCCC4)c3)CC2)n1 [Example 7, 1-(4-(3-(Pyrrolidin-1-yl)-4-(trifluoromethyl)benzyl)piperazine-1-carbonyl)-1H-pyrazole-3-carboxylic Acid] | > 75 | > 75 | 0 to 25 | 0 to 25 | 0 to 25 | 0 to 25 |  |  |
| Cc1cn(C(=O)N2CCC3(CC2)CN(Cc2ccc(C(F)(F)F)cc2N2CCCC2)C3)nc1C(=O)O [Example 135, 4-methyl-1-(2-(2-(pyrrolidin-1-yl)-4-(trifluoromethyl)benzyl)-2,7-diazaspiro[3.5]non-ane-7-carbonyl)-1H-pyrazole-3-carboxylic acid] | > 75 | > 75 | 0 to 25 | 0 to 25 | 0 to 25 | 0 to 25 |  |  |
| CC(=O)NC1CCN(c2cc(C(F)(F)F)ccc2CN2CCN(C(=O)n3ccc(C(=O)O)n3)CC2)CC1 [Example 119, 1-(4-(2-(4-acetamidopiperidin-1-yl)-4-(trifluoromethyl)benzyl)piperazine-1-carbonyl)-1H-pyrazole-3-carboxylic acid] | > 75 | > 75 | 0 to 25 | 0 to 25 | 0 to 25 | 0 to 25 |  |  |
| O=C(O)c1nn(C(=O)N2CCN(Cc3cccc(Oc4ccc(Cl)cc4)c3)CC2)cc1Cl [Example 132, 4-chloro-1-(4-(3-(4-chlorophenoxy)benzyl)piperazine-1-carbonyl)-1H-pyrazole-3-carboxylic acid] | > 75 | > 75 | > 75 | > 75 | 0 to 25 | 0 to 25 |  |  |
| O=C(O)c1ccn(C(=O)N2CCC3(CCN(Cc4cccc(Oc5ccc(Cl)cc5)c4)C3)CC2)n1 [Example 210, 1-(2-(3-(4-chlorophenoxy)benzyl)-2,8-diazaspiro[4.5]decane-8-carbonyl)-1H-pyrazole-3-carboxylic acid] | > 75 | > 75 | > 75 | > 75 | 0 to 25 | 0 to 25 | 100 to 1000 | 1000 to 10000 |
| O=C(O)c1ccn(C(=O)N2CC3CN(Cc4cc(Cl)cc(C(F)(F)F)c4)CC3C2)n1 (stereo not drawn) [Example 124, 1-(5-(3-chloro-5-(trifluoromethyl)benzyl)octahydro-pyrrolo[3,4-c]pyrrole-2-carbonyl)-1H-pyrazole-3-carboxylic acid] | > 75 | > 75 | 50 to 75 | > 75 | 0 to 25 | 25 to 50 |  | 100 to 1000 |
| O=C(O)c1ccn(C(=O)N2CCN(Cc3ccc(C(F)(F)F)cc3N3CCOCC3)CC2)n1 [Example 3, 1-(4-(2-Morpholino-4-(trifluoromethyl)benzyl)piperazine-1-carbonyl)-1H-pyrazole-3-carboxylic Acid] |  | > 75 |  | 0 to 25 | 0 to 25 | 0 to 25 |  | 1000 to 10000 |
| O=C(O)c1ccn(C(=O)N2CCC(Oc3ccc(Cl)c(N4CCCC4)c3)CC2)n1 [Example 121, 1-(4-(4-chloro-3-(pyrrolidin-1-yl)phenoxy)piperidine-1-carbonyl)-1H-pyrazole-3-carboxylic acid] | > 75 | > 75 | 0 to 25 | 0 to 25 | 0 to 25 | 0 to 25 |  |  |
| O=C(O)c1ccn(C(=O)N2CCN(Cc3ccc(C(F)(F)F)cc3N3CCC(O)CC3)CC2)n1 [Example 120, 1-(4-(2-(4-hydroxypiperidin-1-yl)-4-(trifluoromethyl)benzyl)piperazine-1-carbonyl)-1H-pyrazole-3-carboxylic acid] | > 75 | > 75 | 0 to 25 | 0 to 25 | 0 to 25 | 0 to 25 |  |  |
| O=C(O)c1nn(C(=O)N2CC3CN(Cc4ccc(N5CCCC5)cc4C(F)(F)F)CC3C2)cc1Cl (stereo not drawn) [Example 140, 4-chloro-1-(5-(4-(pyrrolidin-1-yl)-2-(trifluoromethyl)benzyl)octahydro-pyrrolo[3,4-c]pyrrole-2-carbonyl)-1H-pyrazole-3-carboxylic acid] | > 75 | > 75 | 50 to 75 | 50 to 75 | 0 to 25 | 0 to 25 |  | 100 to 1000 |
| O=C(O)c1ccn(C(=O)N2CCN(Cc3ccc(Cl)cc3N3CC4COCC4C3)CC2)n1 (stereo not drawn) [Example 111, 1-(4-(4-chloro-2-(tetrahydro-1H-furo[3,4-c]pyrrol-5(3H)-yl)benzyl)piperazine-1-carbonyl)-1H-pyrazole-3-carboxylic acid] | > 75 | > 75 | 0 to 25 | 0 to 25 | 0 to 25 | 0 to 25 |  |  |
| NC(=O)c1ccn(C(=O)N2CC3CN(Cc4ccc(C5(C(=O)O)CCOCC5)cc4C(F)(F)F)CC3C2)n1 (stereo not drawn) [Example 35, 4-(4-((5-(3-carbamoyl-1H-pyrazole-1-carbonyl)hexahydropyrrolo[3,4-c]pyrrol-2(1H)-yl)methyl)-3-(trifluoromethyl)phenyl)tetrahydro-2H-pyran-4-carboxylic Acid] | > 75 | > 75 |  |  | 0 to 25 |  |  |  |
